# Test system: G3BP1 NFT2
# Assay type: binding, human
# Settings: library DMS-CoV; bait G3BP1 NFT2; prey N; peptide APRITFGGPSDSTGSN; listed as aa = residue placed at this position; column sums to 1
Sequence,"DMS PSSM value, T (position 5)","DMS PSSM value, S (position 10)","DMS PSSM value, P (position 9)","DMS PSSM value, F (position 6)","DMS PSSM value, R (position 3)","DMS PSSM value, G (position 7)","DMS PSSM value, G (position 14)","DMS PSSM value, S (position 15)","DMS PSSM value, D (position 11)","DMS PSSM value, S (position 12)"
APRITFGGPSDSTGSN T5K (APRIKFGGPSDSTGSN),0,,,,,,,,,
APRITFGGPSDSTGSN S10F (APRITFGGPFDSTGSN),,0.001618,,,,,,,,
APRITFGGPSDSTGSN S10E (APRITFGGPEDSTGSN),,0.06961,,,,,,,,
APRITFGGPSDSTGSN S10I (APRITFGGPIDSTGSN),,0.2604,,,,,,,,
APRITFGGPSDSTGSN P9D (APRITFGGDSDSTGSN),,,0,,,,,,,
APRITFGGPSDSTGSN F6H (APRITHGGPSDSTGSN),,,,0,,,,,,
APRITFGGPSDSTGSN R3F (APFITFGGPSDSTGSN),,,,,0.003092,,,,,
APRITFGGPSDSTGSN F6D (APRITDGGPSDSTGSN),,,,0,,,,,,
APRITFGGPSDSTGSN G7Y (APRITFYGPSDSTGSN),,,,,,0,,,,
APRITFGGPSDSTGSN T5W (APRIWFGGPSDSTGSN),0,,,,,,,,,
APRITFGGPSDSTGSN G14H (APRITFGGPSDSTHSN),,,,,,,0.009284,,,
APRITFGGPSDSTGSN S15H (APRITFGGPSDSTGHN),,,,,,,,0.01115,,
APRITFGGPSDSTGSN D11Y (APRITFGGPSYSTGSN),,,,,,,,,0.02603,
APRITFGGPSDSTGSN P9I (APRITFGGISDSTGSN),,,0.01105,,,,,,,
APRITFGGPSDSTGSN S12R (APRITFGGPSDRTGSN),,,,,,,,,,0
APRITFGGPSDSTGSN F6G (APRITGGGPSDSTGSN),,,,0,,,,,,
APRITFGGPSDSTGSN G14V (APRITFGGPSDSTVSN),,,,,,,0.009945,,,

Sequence,"DMS PSSM value, T (position 5)","DMS PSSM value, S (position 10)","DMS PSSM value, P (position 9)","DMS PSSM value, F (position 6)","DMS PSSM value, R (position 3)","DMS PSSM value, G (position 7)","DMS PSSM value, G (position 14)","DMS PSSM value, S (position 15)","DMS PSSM value, D (position 11)","DMS PSSM value, S (position 12)"
APRITFGGPSDSTGSN T5A (APRIAFGGPSDSTGSN),0,,,,,,,,,
APRITFGGPSDSTGSN S10G (APRITFGGPGDSTGSN),,0,,,,,,,,
APRITFGGPSDSTGSN D11A (APRITFGGPSASTGSN),,,,,,,,,0.0135,
APRITFGGPSDSTGSN G7S (APRITFSGPSDSTGSN),,,,,,0,,,,
APRITFGGPSDSTGSN S10W (APRITFGGPWDSTGSN),,0,,,,,,,,
APRITFGGPSDSTGSN T5Q (APRIQFGGPSDSTGSN),0,,,,,,,,,
APRITFGGPSDSTGSN G7H (APRITFHGPSDSTGSN),,,,,,0,,,,
APRITFGGPSDSTGSN R3I (APIITFGGPSDSTGSN),,,,,0.2843,,,,,
APRITFGGPSDSTGSN S15F (APRITFGGPSDSTGFN),,,,,,,,0.2174,,
APRITFGGPSDSTGSN R3K (APKITFGGPSDSTGSN),,,,,0.0004363,,,,,
APRITFGGPSDSTGSN D11H (APRITFGGPSHSTGSN),,,,,,,,,0.001494,
APRITFGGPSDSTGSN F6Q (APRITQGGPSDSTGSN),,,,0,,,,,,
APRITFGGPSDSTGSN G7V (APRITFVGPSDSTGSN),,,,,,0,,,,
APRITFGGPSDSTGSN S10P (APRITFGGPPDSTGSN),,0.1036,,,,,,,,
APRITFGGPSDSTGSN R3H (APHITFGGPSDSTGSN),,,,,0.008447,,,,,
APRITFGGPSDSTGSN F6L (APRITLGGPSDSTGSN),,,,0.004454,,,,,,
APRITFGGPSDSTGSN G7L (APRITFLGPSDSTGSN),,,,,,0,,,,

# Same assay, conditions: library DMS-CoV; bait G3BP1 NFT2; prey N; peptide APRITFGGPSDSTGSN; listed as aa = residue placed at this position; column sums to 1
Sequence,"DMS PSSM value, A (position 1)","DMS PSSM value, G (position 8)","DMS PSSM value, T (position 13)","DMS PSSM value, P (position 2)","DMS PSSM value, I (position 4)"
APRITFGGPSDSTGSN A1I (IPRITFGGPSDSTGSN),0.004309,,,,
APRITFGGPSDSTGSN G8K (APRITFGKPSDSTGSN),,0,,,
APRITFGGPSDSTGSN T13D (APRITFGGPSDSDGSN),,,9.878e-5,,
APRITFGGPSDSTGSN P2E (AERITFGGPSDSTGSN),,,,0.7321,
APRITFGGPSDSTGSN T13K (APRITFGGPSDSKGSN),,,0,,
APRITFGGPSDSTGSN T13I (APRITFGGPSDSIGSN),,,0.0005621,,
APRITFGGPSDSTGSN I4V (APRVTFGGPSDSTGSN),,,,,0.03242
APRITFGGPSDSTGSN I4F (APRFTFGGPSDSTGSN),,,,,0
APRITFGGPSDSTGSN T13M (APRITFGGPSDSMGSN),,,0.06406,,
APRITFGGPSDSTGSN P2Q (AQRITFGGPSDSTGSN),,,,0.0005858,
APRITFGGPSDSTGSN P2V (AVRITFGGPSDSTGSN),,,,0,
APRITFGGPSDSTGSN I4R (APRRTFGGPSDSTGSN),,,,,0
APRITFGGPSDSTGSN P2H (AHRITFGGPSDSTGSN),,,,0,
APRITFGGPSDSTGSN G8Q (APRITFGQPSDSTGSN),,0,,,
APRITFGGPSDSTGSN A1G (GPRITFGGPSDSTGSN),0.004858,,,,
APRITFGGPSDSTGSN G8V (APRITFGVPSDSTGSN),,0.0004532,,,

# Same assay, conditions: library DMS-CoV; bait G3BP1 NFT2; prey N; peptide RNAPRITFGGPSDSTG; listed as aa = residue placed at this position; column sums to 1
Sequence,"DMS PSSM value, P (position 11)","DMS PSSM value, G (position 16)","DMS PSSM value, D (position 13)","DMS PSSM value, P (position 4)","DMS PSSM value, I (position 6)","DMS PSSM value, N (position 2)","DMS PSSM value, G (position 9)","DMS PSSM value, A (position 3)","DMS PSSM value, S (position 12)","DMS PSSM value, R (position 5)"
RNAPRITFGGPSDSTG P11L (RNAPRITFGGLSDSTG),0,,,,,,,,,
RNAPRITFGGPSDSTG G16M (RNAPRITFGGPSDSTM),,0,,,,,,,,
RNAPRITFGGPSDSTG D13R (RNAPRITFGGPSRSTG),,,0,,,,,,,
RNAPRITFGGPSDSTG P4T (RNATRITFGGPSDSTG),,,,0,,,,,,
RNAPRITFGGPSDSTG I6H (RNAPRHTFGGPSDSTG),,,,,0,,,,,
RNAPRITFGGPSDSTG I6V (RNAPRVTFGGPSDSTG),,,,,0.768,,,,,
RNAPRITFGGPSDSTG N2I (RIAPRITFGGPSDSTG),,,,,,0,,,,
RNAPRITFGGPSDSTG G9P (RNAPRITFPGPSDSTG),,,,,,,0,,,
RNAPRITFGGPSDSTG A3K (RNKPRITFGGPSDSTG),,,,,,,,0,,
RNAPRITFGGPSDSTG S12I (RNAPRITFGGPIDSTG),,,,,,,,,0,
RNAPRITFGGPSDSTG S12Q (RNAPRITFGGPQDSTG),,,,,,,,,0,
RNAPRITFGGPSDSTG S12H (RNAPRITFGGPHDSTG),,,,,,,,,0,
RNAPRITFGGPSDSTG G16N (RNAPRITFGGPSDSTN),,1,,,,,,,,
RNAPRITFGGPSDSTG I6K (RNAPRKTFGGPSDSTG),,,,,0,,,,,
RNAPRITFGGPSDSTG P11T (RNAPRITFGGTSDSTG),0,,,,,,,,,
RNAPRITFGGPSDSTG R5D (RNAPDITFGGPSDSTG),,,,,,,,,,0.0001605
RNAPRITFGGPSDSTG N2K (RKAPRITFGGPSDSTG),,,,,,0,,,,

Sequence,"DMS PSSM value, P (position 11)","DMS PSSM value, G (position 16)","DMS PSSM value, D (position 13)","DMS PSSM value, P (position 4)","DMS PSSM value, I (position 6)","DMS PSSM value, N (position 2)","DMS PSSM value, G (position 9)","DMS PSSM value, A (position 3)","DMS PSSM value, S (position 12)","DMS PSSM value, R (position 5)"
RNAPRITFGGPSDSTG N2V (RVAPRITFGGPSDSTG),,,,,,0,,,,
RNAPRITFGGPSDSTG P4M (RNAMRITFGGPSDSTG),,,,0,,,,,,
RNAPRITFGGPSDSTG D13L (RNAPRITFGGPSLSTG),,,0,,,,,,,
RNAPRITFGGPSDSTG P11R (RNAPRITFGGRSDSTG),0,,,,,,,,,
RNAPRITFGGPSDSTG P11A (RNAPRITFGGASDSTG),0,,,,,,,,,
RNAPRITFGGPSDSTG D13F (RNAPRITFGGPSFSTG),,,0,,,,,,,
RNAPRITFGGPSDSTG P11G (RNAPRITFGGGSDSTG),0,,,,,,,,,
RNAPRITFGGPSDSTG P11K (RNAPRITFGGKSDSTG),0,,,,,,,,,
RNAPRITFGGPSDSTG S12G (RNAPRITFGGPGDSTG),,,,,,,,,0,
RNAPRITFGGPSDSTG G16S (RNAPRITFGGPSDSTS),,0,,,,,,,,
RNAPRITFGGPSDSTG I6Y (RNAPRYTFGGPSDSTG),,,,,0,,,,,
RNAPRITFGGPSDSTG D13S (RNAPRITFGGPSSSTG),,,0,,,,,,,
RNAPRITFGGPSDSTG S12N (RNAPRITFGGPNDSTG),,,,,,,,,0,
RNAPRITFGGPSDSTG D13V (RNAPRITFGGPSVSTG),,,0,,,,,,,
RNAPRITFGGPSDSTG G9S (RNAPRITFSGPSDSTG),,,,,,,0,,,
RNAPRITFGGPSDSTG I6Q (RNAPRQTFGGPSDSTG),,,,,0,,,,,

# Same assay, conditions: library DMS-CoV; bait G3BP1 NFT2; prey N; peptide RNAPRITFGGPSDSTG; listed as aa = residue placed at this position; column sums to 1
Sequence,"DMS PSSM value, F (position 8)","DMS PSSM value, T (position 15)","DMS PSSM value, S (position 14)","DMS PSSM value, T (position 7)","DMS PSSM value, G (position 10)"
RNAPRITFGGPSDSTG F8T (RNAPRITTGGPSDSTG),0,,,,
RNAPRITFGGPSDSTG F8K (RNAPRITKGGPSDSTG),0,,,,
RNAPRITFGGPSDSTG T15P (RNAPRITFGGPSDSPG),,0,,,
RNAPRITFGGPSDSTG S14I (RNAPRITFGGPSDITG),,,0,,
RNAPRITFGGPSDSTG T7P (RNAPRIPFGGPSDSTG),,,,0,
RNAPRITFGGPSDSTG T15M (RNAPRITFGGPSDSMG),,0,,,
RNAPRITFGGPSDSTG T7D (RNAPRIDFGGPSDSTG),,,,0,
RNAPRITFGGPSDSTG G10H (RNAPRITFGHPSDSTG),,,,,0

# Source: publication PMC12102759 (Protein Science : A Publication of the Protein Society, 2025)
